One data set has as its target T1, human VR1 (Homo sapiens, UniProt Q8NER1).
T1 construct: expressed in transfected cells
The data set can be described thus: Capsaicin-induced Ca2+ influx in the human VR1-transfected CHO cell line (Assay 1). The format is cell-based. As to conditions: human VR1-CHOluc9aeq cells, stimulation with 10 nM capsaicin, Fluo-3 AM / FDSS-3000; compounds of purity about 40 to 90%; read-out: Activity Class (IC50 of capsaicin-induced Ca2+ influx). An excerpt:
[Measurement of Capsaicin-Induced Ca^2+ Influx in the Human VR1-Transfected CHO Cell Line] (Assay 1)
(1) Establishment of the Human VR1-CHOluc9aeq Cell Line
Human vanilloid receptor (hVR1) cDNA was cloned from libraries of axotomized dorsal root ganglia (WO 00/29577). The cloned hVR1 cDNA was constructed with pcDNA3 vector and transfected into a CHOluc9aeq cell line. The cell line contains aequorin and CRE-luciferase reporter genes as read-out signals. The transfectants were cloned by limiting dilution in selection medium (DMEM/F12 medium (Gibco BRL) supplemented with 10% FCS, 1.4 mM Sodium pyruvate, 20 mM HEPES, 0.15% Sodium bicarbonate, 100 U/ml penicillin, 100 μg/ml streptomycin, 2 mM glutamine, non-essential amino acids and 2 mg/ml G418). Ca^2+ influx was examined in the capsaicin-stimulated clones. A high responder clone was selected and used for further experiments in the project. The human VR1-CHOluc9aeq cells were maintained in the selection medium and passaged every 3-4 days at 1−2.5×10^5 cells/flask ([…]).
(2) Measurement of Ca^2+ influx using FDSS-3000
Human VR1-CHOluc9aeq cells were suspended in a culture medium which is the same as the selection medium except for G418 and seeded at a density of 1,000 cells per well into 384-well plates (black walled clear-base/Nalge Nunc International). Following the culture for 48 hrs the medium was changed to 2 μM Fluo-3 AM (Molecular Probes) and 0.02% Puronic F-127 in assay buffer (Hank's balanced salt solution (HBSS), 17 mM HEPES (pH7.4), 1 mM Probenecid, 0.1% BSA) and the cells were incubated for 60 min at 25° C. After washing twice with assay buffer the cells were incubated with a test compound or vehicle for 20 min at 25° C. Mobilization of cytoplasmic Ca^2+ was measured by FDSS-3000 (λex=488 nm, λem=540 nm/Hamamatsu Photonics) for 60 sec after the stimulation with 10 nM capsaicin. Integral R was calculated and compared with controls.
The data corresponds to the compounds as yielded by solid phase synthesis and thus to levels of purity of about 40 to 90%. For practical reasons, the compounds are grouped in four classes of activity as follows: IC50=A (< or =) 0.1 μM<B (< or =) 0.5 μM<C (< or =) 1 μM<D

T1 sequence (Q8NER1 whole entry): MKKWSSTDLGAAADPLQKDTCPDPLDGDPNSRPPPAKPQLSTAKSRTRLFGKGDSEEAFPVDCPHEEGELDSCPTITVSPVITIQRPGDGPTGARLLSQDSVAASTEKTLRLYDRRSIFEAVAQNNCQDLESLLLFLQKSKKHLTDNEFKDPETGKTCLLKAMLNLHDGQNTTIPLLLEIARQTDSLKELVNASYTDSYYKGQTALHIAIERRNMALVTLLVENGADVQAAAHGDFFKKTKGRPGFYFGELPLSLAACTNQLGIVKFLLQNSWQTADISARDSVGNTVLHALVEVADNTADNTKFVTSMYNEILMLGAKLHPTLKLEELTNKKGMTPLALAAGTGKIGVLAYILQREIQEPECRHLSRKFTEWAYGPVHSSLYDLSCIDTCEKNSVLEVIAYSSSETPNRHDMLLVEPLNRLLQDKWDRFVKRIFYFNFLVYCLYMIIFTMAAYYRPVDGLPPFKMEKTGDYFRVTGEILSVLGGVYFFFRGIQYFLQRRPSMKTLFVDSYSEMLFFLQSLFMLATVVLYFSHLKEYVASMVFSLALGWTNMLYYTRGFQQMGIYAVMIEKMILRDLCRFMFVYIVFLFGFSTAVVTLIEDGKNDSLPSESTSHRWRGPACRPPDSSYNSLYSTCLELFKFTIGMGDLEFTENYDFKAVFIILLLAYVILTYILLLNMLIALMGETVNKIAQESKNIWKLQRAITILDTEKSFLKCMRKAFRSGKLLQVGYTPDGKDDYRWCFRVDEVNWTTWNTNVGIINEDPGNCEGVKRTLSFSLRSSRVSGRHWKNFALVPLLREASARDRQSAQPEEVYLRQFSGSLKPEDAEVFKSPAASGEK

`CSc1ccc(-c2cccc(CNC(=O)Nc3cccc4c3CC(O)CC4)c2)cc1` (stereo not drawn) [Example 1-68] displayed a melting point of 195 to 196 °C. In addition, the IC50 on human VR1 is below 100 nM.
For `O=C(NCc1cccc(-c2c(F)cccc2F)c1)Nc1cccc2c1CC(O)CC2` (stereo not drawn) [Example 1-69], in that order: 141 to 142 °C and below 100 nM.
Take `CC(C)c1ccc(-c2cccc(CNC(=O)Nc3cccc4c3CC(O)CC4)c2)cc1` (stereo not drawn) [Example 1-70]: the melting point is 202 to 203 °C. Also, the IC50 at human VR1 is below 100 nM.
`O=C(NCc1cccc(-c2ccc(F)c(Cl)c2)c1)Nc1cccc2c1CC(O)CC2` (stereo not drawn) [Example 1-71] showed a melting point of 188 to 189 °C. In addition, at human VR1, the half-maximal inhibitory concentration (IC50) is below 100 nM.
In turn, `O=C(NCc1cccc(-c2ccc(Cl)cc2Cl)c1)Nc1cccc2c1CC(O)CC2` (stereo not drawn) [Example 1-72] came in with a melting point of 152 to 153 °C. Also, the IC50 at human VR1 was below 100 nM.
In turn, `COc1ccc(-c2cccc(CNC(=O)Nc3cccc4c3CC(O)CC4)c2)cc1` (stereo not drawn) [Example 1-73] showed a melting point of 188 to 189 °C. The IC50 at human VR1 is below 100 nM.
Molecule `C[S+]([O-])c1ccc(-c2cccc(CNC(=O)Nc3cccc4c3CC(O)CC4)c2)cc1` (stereo not drawn) [Example 1-74] had a melting point of 110 to 112 °C. In addition, the half-inhibitory concentration (IC50) on human VR1 was below 100 nM.
As to `O=C(Nc1cccc(-c2cccc3ccccc23)c1)Nc1cccc2c1CC(O)CC2` (stereo not drawn) [Example 1-75], the melting point stood at 223 °C. The IC50 on human VR1 was below 100 nM.
Regarding `CSc1ccc(-c2cc(CNC(=O)Nc3cccc4c3CC(O)CC4)ccc2N2CCCCC2)cc1` (stereo not drawn) [Example 1-76], the melting point fell in the range of 113 to 115 °C. Moreover, on human VR1, the IC50 was below 100 nM.
Molecule `O=C(Nc1cccc2c1CC(O)CC2)c1ccc(-c2ccc(F)c(F)c2)cc1` (stereo not drawn) [Example 2-1, 3′,4′-Difluoro-N-(7-hydroxy-5,6,7,8-tetrahydronaphthalen-1-yl)biphenyl-4-carboxamide] showed a melting point of 210.4 to 212.7 °C. The half-inhibitory concentration (IC50) at human VR1 is below 100 nM.
For `CN(C)c1ccc(-c2ccc(C(=O)Nc3cccc4c3CC(O)CC4)cc2)cc1` (stereo not drawn) [Example 2-2], in that order: 222.1 to 225 °C and below 100 nM.
`COc1ccc(-c2cccc(C(=O)N(C)c3cccc4c3CC(O)CC4)c2)cc1` (stereo not drawn) [Example 2-3] returned a melting point of 150 to 151.2 °C. Further, the concentration for half-maximal inhibition (IC50) on human VR1 was in the range of 500 to 1000 nM.
For the molecule `O=C(Nc1cccc2c1CC(O)CC2)c1ccc(-c2ccccc2)cc1` (stereo not drawn) [Example 2-4], the melting point is 215 to 217 °C. Further, the half-inhibitory concentration (IC50) at human VR1 was below 100 nM.
For `COc1ccc(-c2cccc(C(=O)Nc3cccc4c3CC(O)CC4)c2)cc1` (stereo not drawn) [Example 2-5], in that order: 193.3 to 196.5 °C and 500 to 1000 nM.
The like results for `O=C(Cc1cccc(-c2ccccc2)c1)Nc1cccc2c1CC(O)CC2` (stereo not drawn) [Example 3-1, 2-Biphenyl-3-yl-N-(7-hydroxy-5,6,7,8-tetrahydronaphthalen-1-yl)acetamide] were, in that order, > 134 °C (dec.) and 500 to 1000 nM.

In general, IC50 refers to the midpoint of a concentration-inhibition curve. A word on the melting point: it is the temperature of the solid-liquid transition.

Source of the values: patent publication US8173841B2, “Tetrahydro-naphthalene derivatives” (Xention Limited, priority 2003, dated 2012).
